The structures appear in SMILES notation.

T1 sequence (P76658 whole entry): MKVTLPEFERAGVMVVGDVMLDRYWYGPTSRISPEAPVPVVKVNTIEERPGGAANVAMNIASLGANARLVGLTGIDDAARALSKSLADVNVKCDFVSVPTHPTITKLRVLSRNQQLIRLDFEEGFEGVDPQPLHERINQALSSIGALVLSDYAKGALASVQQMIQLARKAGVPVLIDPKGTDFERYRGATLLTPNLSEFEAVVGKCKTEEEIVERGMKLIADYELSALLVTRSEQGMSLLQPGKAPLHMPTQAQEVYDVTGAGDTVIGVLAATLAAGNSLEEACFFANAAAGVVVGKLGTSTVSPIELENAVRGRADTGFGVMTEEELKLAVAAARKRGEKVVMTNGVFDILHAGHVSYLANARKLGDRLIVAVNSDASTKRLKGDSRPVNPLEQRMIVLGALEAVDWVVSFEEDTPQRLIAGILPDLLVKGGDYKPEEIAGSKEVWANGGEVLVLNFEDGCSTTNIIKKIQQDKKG

This experiment concerns the target T1, RfaE (Escherichia coli, UniProt P76658).
T1 construct: made in house; host or cells: E. coli
The experiment in a line: Inhibition of the enzymatic activity of RfaE (HTS luminescent or fluorescent biochemical assay). Also on record: species or system E. coli. The following applies: inhibitor tested at 6 to 10 concentrations; 30 min pre-incubation at room temperature. The method, then: According to another object, the invention also relates to a method for assessing RfaE enzymatic activity. • Said method comprises • pre-incubating at room temperature • DMSO or inhibitor to be tested dissolved in DMSO and RfaE in an assay buffer • and either • adding a reaction mixture composed of RfaE, β-heptose-7-phosphate, ATP, in the assay buffer and incubating at room temperature • adding a revelation mixture composed of luciferase, D-luciferin and N-acetylcysteamine • measuring the luminescence intensity and converting into inhibition % to further calculate the IC50 values; • or • adding a reaction mixture composed of RfaE, β-heptose-7-phosphate ATP, pyruvate kinase, phosphoenolpyruvate, lactate dehydrogenase and NADH in said assay buffer, • measuring the fluorescence intensity of NADH kinetically and deriving inhibition % from fitted initial velocities, to further calculate the IC50 values.
Inhibition of the Enzymatic Activity of RfaE
RfaE is a kinase belonging to the ribokinase family. It catalyses an essential step of the biosynthesis of L-ADP-Heptose, namely the phosphorylation of β-heptose-7-phosphate (H7P) into β-heptose-1,7-bisphosphate (H17P). RfaE assays as described in the literature are essentially based on direct HLPC detection of the substrates H7P and ATP, and of the products H17P and ADP, raising obvious limitations for HTS applications. The assays described below are based either on luminescent ATP detection, or on fluorescent ADP detection. They are easily amenable to miniaturized formats and fast readouts as required by HTS.
The assay buffer “AB” contains 50 mM Hepes pH7.5, 1 mM MnCl2, 25 mM KCl, 0.012% Triton-X100 and 1 mM DTT. The following components are added in a white polystyrene Costar plate up to a final volume of 31 μL: 3 μL DMSO, or inhibitor dissolved in DMSO and 28 μL RfaE in AB. After 30 min of pre-incubation at room temperature, 29 μL of Substrates mix in AB are added in each well to a final volume of 60 μL. This reaction mixture is then composed of 3 nM RfaE (produced in house from E. coli), 0.2 μM β-heptose-7-phosphate (in house synthesis) and 0.2 μM ATP (Sigma) in assay buffer. After 40 min of incubation at room temperature, 200 μL of the revelation mix are added to a final volume of 260 μL, including the following constituents at the respective final concentrations: 2 nM luciferase (Sigma), 30 μM D-luciferin (Sigma), 100 μM N-acetylcysteamine (Aldrich). Luminescence intensity is immediately measured on an Analyst-HT (Molecular Devices) and converted into inhibition percentages. For IC50 determinations, the inhibitor is tested at 6 to 10 different concentrations, and the related inhibitions are fitted to a classical langmuir equilibrium model using XLFIT (IDBS).
The assay buffer “AB” contains 50 mM Hepes pH7.5, 1 mM MnCl2, 25 mM KCl, 0.012% Triton-X100 and 1 mM DTT. The following components are added in a black polystyrene Costar plate up to a final volume of 50 μL: 5 μL DMSO, or inhibitor dissolved in DMSO and 45 μL RfaE in AB. After 30 min of pre-incubation at room temperature, 50 μL of Substrates-revelation mix in AB are added in each well to a final volume of 100 μL. This reaction mixture is then composed of 66 μM RfaE (produced in house from E. coli), 1 μM β-heptose-7-phosphate (in house synthesis), 50 μM ATP (Sigma), 5 u/mL Pyruvate Kinase (Sigma), 50 μM phosphoenolpyruvate (Sigma), 5 u/mL Lactate dehydrogenase (Sigma) and 2.5 μM NADH (Sigma) in assay buffer. Fluorescence intensity of NADH (λex=360 nm, λem=520 nm) is immediately measured kinetically by a Fluostar Optima (BMG). Inhibition percentages are derived from fitted initial velocities. For IC50 determinations, the inhibitor is tested at 6 to 10 different concentrations, and the related inhibitions are fitted to a classical langmuir equilibrium model using XLFIT (IDBS).
`Cc1oc(-c2ccccc2C(F)(F)F)nc1C(=O)N(CC(=O)O)Cc1ccccn1` [XV, [({5-methyl-2-[2-(trifluoromethyl)phenyl]-1,3-oxazol-4-yl}carbonyl)(pyridin-2-ylmethyl)amino]acetic Acid] returned an IC50 of 121 µM. In turn, `COc1ccc(-c2nc(C(=O)N(CC(=O)O)Cc3ccccn3)c(C)o2)cc1` [Example XXI, [{[2-(4-methoxyphenyl)-5-methyl-1,3-oxazol-4-yl]carbonyl}(pyridin-2-ylmethyl)amino]acetic Acid] had a half-inhibitory concentration (IC50) of 75 µM. `Cc1oc(-c2ccccc2Br)nc1C(=O)N(CC(=O)O)Cc1ccccn1` [XIX, [{[2-(2-bromophenyl)-5-methyl-1,3-oxazol-4-yl]carbonyl}(pyridin-2-ylmethyl)amino]acetic Acid]: the IC50 came out at 44 µM.

`Cc1cccc(C)c1-c1nc(C)c(C(=O)N(CC(=O)O)Cc2nc3ccccc3s2)s1` [XL, ((1,3-benzothiazol-2-ylmethyl){[4-methyl-2-(2,6-dimethylphenyl)-1,3-thiazol-5-yl]carbonyl}amino)acetic Acid] returned a half-maximal inhibitory concentration (IC50) of 50.5 µM. The figure for `Cc1oc(-c2cccc(O)c2)nc1C(=O)N(CC(=O)O)Cc1ccccn1` [XXV, [{[2-(3-hydroxyphenyl)-5-methyl-1,3-oxazol-4-yl]carbonyl}(pyridin-2-ylmethyl)amino]acetic Acid] is 50 µM; for `Cc1nc(-c2ccccc2)oc1C(=O)N(CC(=O)O)Cc1ccccn1` [VI, [[(4-methyl-2-phenyl-1,3-oxazol-5-yl)carbonyl](pyridin-2-ylmethyl)amino]acetic Acid] it is 71 µM. The molecule `CC(=O)Oc1cccc(-c2nc(C)c(C(=O)N(CC(=O)O)Cc3ccccn3)o2)c1` [IV, [({2-[3-(acetyloxy)phenyl]-4-methyl-1,3-oxazol-5-yl}carbonyl)(pyridin-2-ylmethyl)amino]acetic Acid] came in with an IC50 of 52 µM.

As to `Cc1oc(-c2ccc(O)cc2)nc1C(=O)N(CC(=O)O)Cc1ccccn1` [XXIV, [{[2-(4-hydroxyphenyl)-5-methyl-1,3-oxazol-4-yl]carbonyl}(pyridin-2-ylmethyl)amino]acetic Acid], the IC50 was 39 µM. The molecule `COc1cccc(-c2nc(C)c(C(=O)N(CC(=O)O)Cc3nc4cc(OC)ccc4s3)o2)c1` [XXX, ((5-methoxy-1,3-benzothiazol-2-ylmethyl){[2-(3-methoxyphenyl)-4-methyl-1,3-oxazol-5-yl]carbonyl}amino)acetic Acid] returned a half-inhibitory concentration (IC50) of 1.09 µM. This IC50 lies about 36-fold lower than the previous one. The molecule `O=C(O)CN(Cc1ccccn1)C(=O)c1nc(-c2ccccc2)oc1C(F)(F)F` [XIII, [{[2-phenyl-5-(trifluoromethyl)-1,3-oxazol-4-yl]carbonyl}(pyridin-2-ylmethyl)amino]acetic Acid] displayed an IC50 of 80 µM. The same measure for `Cc1nc(-c2ccc(Cl)cc2)oc1C(=O)N(CC(=O)O)Cc1ccccn1` [V, [{[2-(4-chlorophenyl)-4-methyl-1,3-oxazol-5-yl]carbonyl}(pyridin-2-ylmethyl)amino]acetic acid]: 54 µM. With `O=C(O)CN(Cc1ccccn1)C(=O)c1nc(-c2ccccc2)oc1COCc1ccccc1` [I, {[[5-(benzyloxy)methyl-2-phenyl-1,3-oxazol-4-yl]carbonyl](pyridin-2-ylmethyl)amino}acetic Acid], the midpoint of inhibition, the IC50, lay at 265 µM.

Molecule `O=C(O)CN(Cc1ccccn1)C(=O)c1ccc(-c2ccccc2)o1` [VII, [(5-phenyl-2-furoyl)(pyridin-2-ylmethyl)amino]acetic Acid] registered an IC50 of 100 µM. The same measure for `Cc1nc(-c2cccc([N+](=O)[O-])c2)sc1C(=O)N(CC(=O)O)Cc1nc2ccccc2s1` [XXXIX, ((1,3-benzothiazol-2-ylmethyl){[4-methyl-2-(3-nitrophenyl)-1,3-thiazol-5-yl]carbonyl}amino)acetic Acid]: 0.5 µM.
